# From US20230365516A1, “COMPOUNDS FOR CANCER THERAPY AND IMAGING” (Washington University, priority 2020, published 2023)
# “Also recorded” adds a separate entry of the source. Like-named read-outs stand apart in the source and are kept apart here.
# Assays:
# MM.1S cells [1] = assay: Cell viability assay (CellTiter-Glo), MM.1S cells; assay type: cell-based, human; details: for EC50: MM1.S
# Description: (§1) Cell culture and Reagents: Human MM cell lines MM1.S, U266, and OPM2 were cultured in RPMI-1640 medium supplemented with 10% fetal bovine serum, 100 units/mL penicillin, 100 µg/mL streptomycin at 37° C., 5% CO2. PBMCs were purchased from Lonza Bioscience, USA and maintained overnight in RPMI-1640 medium supplemented with 10% fetal bovine serum, 100 units/mL penicillin, 100 µg/mL streptomycin at 37° C., 5% CO2 before using for experiments. IL-6 and IGF-1 were purchased from R&D Systems. PD98059 was obtained from Cell Signaling Technology. Z-VAD-FMK was purchased from Santa Cruz. Bortezomib was obtained from Sigma. LS1090 [2-((7-nitrobenzo[c][1,2,5]oxadiazol-4-yl)thio)ethyl (3-(trifluoromethyl)phenyl)carbamate] was purchased from MolPort, Inc.M. Maybridge library was purchased from Thermo Fisher Scientific, NeXT Diversity 3500 and Diversity SAR 3500 sets were gifts from NCI.
# (§2) Cell viability assay: Twenty thousand MM1.S, U266, OPM2, and PBMCs in 100 µL of growth media were added per well in a 96-well plate. The cells were incubated for 24 h with serial dilutions of LS1090 stock solution (10 mM in DMSO) or BTZ stock solution (1 mM in DMSO). Dilutions were prepared in growth media. Cells viability was assessed using the CellTiter-Glo luminescence-based assay (Promega). After adding 100 µL CellTiter-Glo reagent, relative luminescence units (RLU) were measured using the Synergy2 plate reader (BioTek) and expressed as a percentage of the untreated cell controls.
# 5TGM1 = assay: Growth inhibition of mouse MM cell line 5TGM1; assay type: cell-based
# MM.1S cells [2] = assay: RealTime-Glo Annexin V Apoptosis and Necrosis Assay, MM.1S cells; assay type: cell-based, human
# Description: LS1090 activates ERK1/2 to induce apoptosis in MM cells via a p53-independent pathway: Chemotherapeutics exert their effects via multiple cell death pathways, including apoptosis and necrosis. To determine the dominant mechanism of LS1090-induced MM cell death, RealTime-Glo Annexin V Apoptosis and Necrosis Assay were used, which report both pathways simultaneously. The method reports apoptosis by detecting phosphatidylserine on the outer leaflet of cell membranes and necrosis by measuring plasma membrane integrity. […] This delayed necrosis onset points to a cell death mechanism where pro-apoptosis induction transforms into secondary necrosis when phagocytes are not available to remove apoptotic cells.
# Apoptosis and caspase activation assays: Caspase3/7 activity was measured using Caspase-Glo3/7 Assay System (Promega). MM.1S cells were seeded in a white 96-well plate at a density of 20000 cells per well. […] Caspase-Glo3/7 reagent was added directly to the cells and incubated for 30 min before recording luminescence using the Synergy2 plate reader (BioTek). […] Kinetics of apoptosis and necrosis was monitored using RealTimeGlo Annexin V Apoptosis and Necrosis Assay (Promega). […] The luminescence and fluorescence signals were monitored for 24 h. Relative luminescence units (RLU) and relative fluorescence units (RFU) were measured at different time points using the Synergy2 plate reader (BioTek).
# ERK1/2 = assay: Western blot of ERK1/2 activation in MM.1S cells; assay type: cell-based, human
# Description: ERK1/2 signaling plays an essential role in the cascade of apoptosis-mediated cell death. To interrogate its involvement, MM.1S cells were treated with LS1090 and Western blots used to determine ERK1/2 activation. […] Given that ERK1/2 signaling can utilize caspase-dependent or independent pathways to induce apoptosis, LS1090 mediated activation of caspase 3/7 in MM.1S cells was examined in the presence or absence of ERK1/2 activation inhibitor, PD98059. […] The consequential effect of caspase 3/7 activation on cell death was further validated by determining the viability of LS1090-treated MM1.S cells in the presence or absence of the caspase inhibitor, Z-VAD-fmk.
# Cell extract preparation and Western blotting: Protein extracts were prepared by washing cells with PBS (pH 7.4) and suspending in RIPA lysis buffer (20 mM Tris-HCI (pH 7.5), 150 mM NaCl, 1 mM Na2EDTA, 1 mM EGTA, 1% NP-40) containing protease and phosphatase inhibitors (Sigma). Equal amounts of protein, as determined by the BCA protein assay (Thermo Fisher Scientific), were subjected to SDS-PAGE (12% gels; Bio-Rad), followed by transfer to nitrocellulose membrane. […]
# OPM2 cells = assay: Cell viability assay (CellTiter-Glo), OPM2 cells; assay type: cell-based; details: OPM-2, human OPM2 cells
# Description: as §1
# as §2, with “The cells were incubated for 24 h with serial dilutions of LS1090 stock solution (10 mM in DMSO) or BTZ stock solution (1 mM in DMSO). Dilutions were prepared in growth media.” left out
# PBMCs = assay: Cell viability assay (CellTiter-Glo), nontumor PBMCs; assay type: cell-based; details: 24 h incubation, at the EC50/IC50 for MM1.S (0.49 µM) and higher
# Description: Cell culture and Reagents: Human MM cell lines MM1.S, U266, and OPM2 were cultured in RPMI-1640 medium supplemented with 10% fetal bovine serum, 100 units/mL penicillin, 100 µg/mL streptomycin at 37° C., 5% CO2. PBMCs were purchased from Lonza Bioscience, USA and maintained overnight in RPMI-1640 medium supplemented with 10% fetal bovine serum, 100 units/mL penicillin, 100 µg/mL streptomycin at 37° C., 5% CO2 before using for experiments. […] Bortezomib was obtained from Sigma.
# Bcl-2 = assay: Western blot of Bcl-2 expression in MM.1S cells; assay type: cell-based, human
# Description: (§3) ERK is known to exert its pro-apoptotic function by upregulating p53 and downregulating Bcl-2 expression. […] In contrast, the expression of pro-apoptotic protein, Bax, increased within 1 h post-treatment (FIG. 5H).
# (§4) Cell extract preparation and Western blotting: Protein extracts were prepared by washing cells with PBS (pH 7.4) and suspending in RIPA lysis buffer (20 mM Tris-HCI (pH 7.5), 150 mM NaCl, 1 mM Na2EDTA, 1 mM EGTA, 1% NP-40) containing protease and phosphatase inhibitors (Sigma). Equal amounts of protein, as determined by the BCA protein assay (Thermo Fisher Scientific), were subjected to SDS-PAGE (12% gels; Bio-Rad), followed by transfer to nitrocellulose membrane. Membrane were incubated with 1:1000 anti-ERK1/2 (Thr202/Tyr204, anti-phosphoERK1/2 (Thr202/Tyr204), anti-p53, anti-Bcl2, anti-Bax (Cell Signaling Technology) and anti-βActin (Santa Cruz). Secondary antibodies consisted of horseradish peroxidase-conjugated goat anti-rabbit IgG or goat anti-mouse IgG (Sigma). Detection was done by the enhanced chemiluminescence method (Thermo Fisher Scientific).
# U266 cells [3] = assay: Cell viability assay (CellTiter-Glo), U266 cells; assay type: cell-based, human
# Description: as §1, §2
# caspase 3/7 = assay: Caspase-Glo3/7 assay in MM.1S cells; assay type: cell-based, human
# Description: Apoptosis and caspase activation assays: Caspase3/7 activity was measured using Caspase-Glo3/7 Assay System (Promega). MM.1S cells were seeded in a white 96-well plate at a density of 20000 cells per well. Cells were pretreated with 20 µmol/L PD98059 followed by incubation with 1 µM LS1090 for 4 h at 37° C., 5% CO2 before accessing caspase 3/7 activity. Caspase-Glo3/7 reagent was added directly to the cells and incubated for 30 min before recording luminescence using the Synergy2 plate reader (BioTek). Data were represented as a fold change from the untreated cells control. Kinetics of apoptosis and necrosis was monitored using RealTimeGlo Annexin V Apoptosis and Necrosis Assay (Promega). MM.1S cells were treated with 1 µM LS1090 and incubated in the presence of 100 µL the RealTimeGlo Annexin V Apoptosis and Necrosis reagent at 37° C., 5% CO2. The luminescence and fluorescence signals were monitored for 24 h. Relative luminescence units (RLU) and relative fluorescence units (RFU) were measured at different time points using the Synergy2 plate reader (BioTek).
# [4] = system: chymotrypsin-like activity of proteasomes; assay: Proteasome-Glo Chymotrypsin-Like activity assay in MM.1S cells; assay type: cell-based, human
# Description: Proteasome activity assays: MM.1S cells were seeded in a white 96-well plate at a density of 20000 per well. Cells were treated with 1 µML LS1090 or 100 nM Bz for 4 h before accessing chymotrypsin-like activity using Proteasome-Glo™ Chymotrypsin-Like, (Promega). After adding the Proteasome-Glo™ reagent, luminescence was determined as relative light units (RLU) using the Synergy2 plate reader (BioTek).
# p53 = assay: Western blot of p53 expression in MM.1S cells; assay type: cell-based, human
# Description: as §3, §4
# [5] = system: IGR Cap1, HT1080, and MDA MB231; assay: Viability of selected cancer cell lines after 24 h with LS1090; assay type: cell-based; details: 1 µM LS1090, 24 h
# Description: Cells were treated with LS1090 for 24h, followed by assessment of viability using CellTitler-Glow assay. n=4 for each condition.
# Additionally, the viability of selected cancer cell lines were evaluated (IGR Cap1, HT1080, and MDA MB231) after 24 h incubation with LS1090 (see, e.g. FIGS. 9-11).
# Bax = assay: Western blot of Bax expression in MM.1S cells; assay type: cell-based, human
# Description: as §3, §4
# U266 cells [6] = assay: RealTime-Glo Annexin V Apoptosis and Necrosis Assay, U266 cells; assay type: cell-based, human; details: monitored 24 h
# [7] = system: MM1.S-GFP-Luc disseminated MM xenograft
# Description: MM1.S cells stably transfected with GFP-firefly Luciferase (MM1.S-GFP-Luc), when administered intravenously (IV) in Fox Chase SCID beige mice, home to the bone marrow (BM) and are readily detectable by bioluminescence imaging (BLI) after 15-21 days from inoculation. On the third week from tumor inoculation, detecting the presence of the MM lesions in BM in mice with BLI photon flux of 106, we initiated therapy.
# The mice were subjected to four dosages of therapy in two days apart over two weeks. The therapy were stopped after four dosages and the tumor progression over time was monitored by in vivo BLI once a week. […] Paralysis or loss of 15% of the original weight were taken as criteria of end point of the mice.
# Each treated mouse received two doses per week separated by 3 days over two weeks for a total of four dosages, and BLI was used to monitor tumor progression. […] The endpoint for the study includes paralysis, loss of 20% of the original weight or sudden death due to the tumor burden before any other symptom appeared.
# Fox Chase SCID Beige mice (From in house colony) (8-10 weeks old) were implanted with MM1.S cells stably transfected with GFP and CBR Luciferase (MM1.S-GFP-Luc) (2 million cells in 100 µL DPBS per mouse) by tail vein injection. […] The progression of tumor was monitored by whole-body BLI once a week post tumor inoculation. […]
compound,measurement,setting,value
"O=C(Nc1cccc(C(F)(F)F)c1)OCCSc1ccc([N+](=O)[O-])c2nonc12 [LS1090, 2-((7-nitrobenzo[c][1,2,5]oxadiazol-4-yl)thio)ethyl (3-(trifluoromethyl)phenyl)carbamate]",cells eradicated,"MM.1S cells [1]; LS1090-treated MM1.S cells, absence of Z-VAD-fmk",60%
same,EC50,"MM.1S cells [1]; human MM.1S cells, 24 h, read-out: EC50, MM.1S",490 nM
same,cytotoxicity in the presence of recombinant IL-6 or IGF-1,"MM.1S cells [1]; MM.1S cells, 24 h",neither recombinant IL-6 nor IGF-1 blocked
same,IC50,MM.1S cells [1]; human MM1.S cells,490 nM
same,IC50,"5TGM1; 5TGM1, mouse MM cell line 5TGM",320 nM
same,EC50,5TGM1; mouse MM cell line 5TGM1,320 nM
same,time of apoptosis peak post-treatment,MM.1S cells [2]; MM cells treated with LS1090 (1 µM),about 10 h
same,apoptosis-necrosis time pattern,"MM.1S cells [2]; MM.1S cells, monitored 24 h",necrosis lagged apoptosis
same,duration of activated ERK1/2 state,ERK1/2,sustained over 3 h
same,time to ERK1/2 phosphorylation post-treatment,ERK1/2,less than 1 h
same,IC50,OPM2 cells,490 nM
same,EC50,OPM2 cells; 24 h,490 nM
same,cytotoxicity on PBMCs,PBMCs,significant toxic effect; also recorded: significant cytotoxicity
same,Bcl-2 expression after treatment,Bcl-2,did not downregulate
same,cytotoxicity at 1 µM,"U266 cells [3]; Homo sapiens, U-266, 1 µM LS1090, read-out: decrease of viability of U266 cells",55%
same,IC50,"U266 cells [3]; U-266, human U266 cells",440 nM
same,EC50,"U266 cells [3]; U-266, human U266 cells, 24 h",440 nM
same,increase in caspase 3/7 activity,"caspase 3/7; MM.1S cells, 1 µM LS1090, 4 h incubation, fold change from untreated cells",over seven-fold increase
same,"chymotrypsin-like activity in MM.1S cells, LS1090",[4]; 4 h incubation at ten-fold the concentration of BTZ,did not significantly perturb
same,p53 expression after treatment,p53,lack of p53 enhancement
same,effect on viability of selected cancer cell lines,[5],had an effect on all tested cancer cell lines
same,time to increased Bax expression post-treatment,Bax,≤ 1 h
same,apoptosis-necrosis time pattern,U266 cells [6],same apoptosis-necrosis pattern
"COc1cccc(-c2cc(=O)c3ccccc3o2)c1N [PD98059, reference compound]",LS1090-triggered caspase 3/7 activity in the presence of PD98059,"caspase 3/7; MM.1S cells pretreated with 20 µmol/L PD98059, then 1 µM LS1090 4 h",inhibited
"CC(C)C[C@H](NC(=O)[C@H](Cc1ccccc1)NC(=O)c1cnccn1)B(O)O [BTZ, Bortezomib, reference compound]",EC50,"MM.1S cells [1]; Homo sapiens, MM.1S cells, read-out: EC50 of BTZ alone",2 nM
same,EC50 of BTZ with increasing concentration ratio of LS1090 to BTZ,"MM.1S cells [1]; MM.1S cells, in combination with LS1090",1.4 nM
same,sensitivity of U266 cells to BTZ relative to MM.1S cells (less sensitive),U266 cells [3]; U266 versus MM.1S,10 fold
same,"chymotrypsin-like activity in MM.1S cells, BTZ","[4]; 0.1 µM, 4 h",efficiently inhibits
same,"course of disease, BTZ","[7]; 0.5 mg/kg or 1.0 mg/kg IP, same regimen",experienced early remission and relapsed after 6-week post-inoculation
same,toxicity of BTZ dose over 1 mg/Kg,[7]; BTZ over 1 mg/Kg IP,lethal effect on mice after the second dose
Z-VAD-fmk [reference compound],LS1090-induced cell death on co-incubation with Z-VAD-fmk,"MM.1S cells [1]; MM1.S cells, p< 0.0001",inhibited this event
